Data as given in article PMC9929129, “Towards Translation of PqsR Inverse Agonists: From In Vitro Efficacy Optimization to In Vivo Proof‐of‐Principle” (Advanced Science, 2023).
Converted amounts (≈) assume the structure as drawn. “Also recorded” adds a separate entry of the source.

Assays:
[1] = Plasma protein binding, human (equilibrium dialysis); assay type: in vitro ADME
Procedure: (§1) 1.4.4 Pharmacokinetic and off-target functional assays (Cyprotex)
(§2) Compound 24 was assayed at Cyprotex in functional assays for interference with important off-targets as well as important pharmacokinetic parameters. With the exception of plasma protein binding, a dose-response relationship was studied in order to calculate IC50 values.
(§3) Table S10. Information on in vitro ADMET assays performed at Cyprotex. […]
Plasma protein binding assay (human and Equilibrium dialysis […]
An increase in the number of colonies of at least two-fold over baseline (mean + SD of the vehicle control) and a dose response indicate a positive response. An […]
different from the vehicle control.
Where indicated, S9 fraction from the livers of Aroclor 1254-treated rats were included in the incubation at a final concentration of 4.5%. A NADPH-regenerating system was also included to ensure a steady supply of reducing equivalents.

[2] = system: Salmonella typhimurium TA98 and TA100; assay: Mini-AMES; assay type: cell-based; conditions: @62.25 µg mL^−1 (147 × 10^−6 M); also in presence of rat liver S9 fractions
Procedure: P2X4 receptor (human P2RX4 gene) expressed in HEK293 cells >30
TRPA1 channel (human TRPA1 gene) expressed in CHO cells >30
TRPC6 channel (human TRPC6 gene) expressed in HEK293 cells >30
TRPV1 channel (human TRPV1 gene) expressed in HEK293 cells >30
TRPV4 channel (human TRPV4 gene) expressed in CHO cells >30
as §1, §2, §3
Approximately ten million bacteria were exposed in triplicate to 24 (1.9, 3.9, 7.8, 15.6, 31.2, 62.5 µg/mL), a negative control (vehicle) and positive controls for 90 min in medium containing a low concentration of histidine (sufficient for about 2 doublings.) The cultures were then diluted into indicator medium lacking histidine, and dispensed into 48 wells of 384-well plates (micro-plate format, MPF). […] The wells showing growth were counted and compared to the vehicle control. […]
The maximum tolerated dose of 24 in NMRI mice was conducted and analyzed at CRO ATRC Aurigon Toxicological Research Center Ltd, Hungary. […]

[3] = Metabolic stability in mouse hepatocytes; assay type: in vitro ADME; conditions: read-out: Mouse hepatocytes t½
[4] = system: Bronchiectasis clinical isolates, PA14 and PAO1; assay: Antimicrobial minimal inhibitory concentrations (MIC), microdilution; conditions: Pseudomonas aeruginosa

SMILES	Plasma binding human [1] [%]	Mini‐AMES genotoxicity [2]	half-life [3] [min]	MIC ([4]; PA14|PAO1, strain column 1 of 16 (strain heads not assignable)) [µg/mL]	MIC ([4]; strain column 2 of 16) [µg/mL]	MIC ([4]; strain column 3 of 16) [µg/mL]	MIC ([4]; strain column 4 of 16) [µg/mL]	MIC ([4]; strain column 5 of 16) [µg/mL]	MIC ([4]; strain column 6 of 16) [µg/mL]	MIC ([4]; strain column 7 of 16) [µg/mL]	MIC ([4]; strain column 8 of 16) [µg/mL]	MIC ([4]; strain column 9 of 16) [µg/mL]	MIC ([4]; strain column 10 of 16) [µg/mL]	MIC ([4]; strain column 11 of 16) [µg/mL]	MIC ([4]; strain column 12 of 16) [µg/mL]	MIC ([4]; strain column 13 of 16) [µg/mL]	MIC ([4]; strain column 14 of 16) [µg/mL]	MIC ([4]; strain column 15 of 16) [µg/mL]	MIC ([4]; strain column 16 of 16) [µg/mL]
CC(C)Oc1ccc(-c2ncc(CNc3ccnc(C(F)(F)F)c3)cn2)cc1Cl [Compound 24]	>99	no genotoxicity; also recorded: Negative @62.25 µg mL^−1 (147 × 10^−6 M)	9																
NC[C@H]1O[C@H](O[C@H]2[C@H](O)[C@@H](O[C@H]3O[C@H](CO)[C@@H](O)[C@H](N)[C@H]3O)[C@H](N)C[C@@H]2N)[C@H](N)C[C@@H]1O [Tobramycin, tobramycin]				1 (≈ 2.14 µM)	1 (≈ 2.14 µM)	≤ 0.5	≤ 0.5	≤ 0.5	≤ 0.5	≤ 0.5	2 (≈ 4.28 µM)	1 (≈ 2.14 µM)	≤ 0.5	≤ 0.5	≤ 0.5	≤ 0.5	≤ 0.5	≤ 0.5	≤ 0.5
